According to paper PMC10410440, “Preclinical PK investigation of a novel IDO1/TDO dual inhibitor—SHR9146 in mouse plasma and tissues by LC-MS/MS” (Frontiers in Oncology, 2023):
“Also recorded” adds a separate entry of the source.

Assay: Stability of SHR9146 in mouse plasma, whole blood and post-preparative samples
Type: in vitro ADME
Method: The plasma samples were examined under different conditions, including at room temperature for 6 h, three freeze–thaw cycles, and at −20°C and −70°C for 50 days. Post-preparative plasma samples were studied after being placed at room temperature for 24 h. […] Samples were considered to be stable if the deviations between measured concentration and the spiked values were within ±15%.

[1] = mouse plasma, after three freeze–thaw cycles, QC spiked 0.15 μg/mL, n=3
[2] = mouse plasma, after three freeze–thaw cycles, QC spiked 40 μg/mL, n=3
[3] = mouse plasma, at -70 °C for 50 days, QC spiked 0.15 μg/mL, n=3
[4] = mouse plasma, at -70 °C for 50 days, QC spiked 40 μg/mL, n=3
[5] = mouse plasma, at room temperature for 6 h, QC spiked 0.15 μg/mL, n=3
[6] = mouse plasma, at room temperature for 6 h, QC spiked 40 μg/mL, n=3
[7] = mouse plasma, at −20 °C for 50 days, QC spiked 0.15 μg/mL, n=3
[8] = mouse plasma, at −20 °C for 50 days, QC spiked 40 μg/mL, n=3
[9] = mouse whole blood samples at room temperature for 2 h, QC spiked 0.15 μg/mL, n=3
[10] = mouse whole blood samples at room temperature for 2 h, QC spiked 40 μg/mL, n=3
[11] = post-preparation plasma samples at room temperature for 24 h, QC spiked 0.15 μg/mL, n=3
[12] = post-preparation plasma samples at room temperature for 24 h, QC spiked 40 μg/mL, n=3

**Q.** Which results are given for `OCCn1cc(-c2ccc(N3CCC([C@H]4c5c(F)cccc5-c5cncn54)CC3)cc2)cn1` [SHR9146]?
**A.** RE (mouse plasma samples at room temperature for 6 h, QC levels not separated): −11.1%; Measured value [1]: 0.151 ± 0.002 µg/mL; RE [1]: 1.0%; Measured value [2]: 40.2 ± 0.33 µg/mL; RE [2]: 0.6%; Measured value [3]: 0.151 ± 0.004 µg/mL; RE [3]: 0.5%; Measured value [4]: 39.5 ± 0.26 µg/mL; RE [4]: −1.2%; Measured value [5]: 0.133 ± 0.002 µg/mL; RE [5]: −11.1%; Measured value [6]: 35.6 ± 0.17 µg/mL; RE [6]: −11.1%; Measured value [7]: 0.148 ± 0.004 µg/mL; RE [7]: −1.6%; Measured value [8]: 39.5 ± 0.11 µg/mL; RE [8]: −1.2%; Measured value [9]: 0.145 ± 0.002 µg/mL; RE [9]: −0.5%; Measured value [10]: 39.4 ± 0.22 µg/mL; RE [10]: −0.1%; Measured value [11]: 0.151 ± 0.003 µg/mL; RE [11]: 0.8%; Measured value [12]: 40.3 ± 0.09 µg/mL; RE [12]: 0.8%; stability in bio-samples (various storage conditions, stable if deviation within ±15%): stable in all the tested bio-samples; also recorded: stable under various storage conditions
